According to patent US8501770B2 (ArQule, Inc., priority 2009, dated 2013):

Target: Full-length inactive AKT1 (Homo sapiens, UniProt P31749)
Test: Inactive Akt Alpha Screen Assay
Type: biochemical
Conditions: values not marked with "*"; read-out: Akt1 IC50, (AlphaScreen)
Method in brief: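 AlphaScreen read-out (excitation 640 nm, emission 570 nm) after 90 min incubation at room temperature in the dark. Signal comes from crosstide phosphorylation by AKT1, which was activated by added PDK1, MAPKAPK2, ATP and lipid vesicles, captured via phospho-AKT substrate antibody and streptavidin beads.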

Sequence of Full-length inactive AKT1 (P31749 whole entry): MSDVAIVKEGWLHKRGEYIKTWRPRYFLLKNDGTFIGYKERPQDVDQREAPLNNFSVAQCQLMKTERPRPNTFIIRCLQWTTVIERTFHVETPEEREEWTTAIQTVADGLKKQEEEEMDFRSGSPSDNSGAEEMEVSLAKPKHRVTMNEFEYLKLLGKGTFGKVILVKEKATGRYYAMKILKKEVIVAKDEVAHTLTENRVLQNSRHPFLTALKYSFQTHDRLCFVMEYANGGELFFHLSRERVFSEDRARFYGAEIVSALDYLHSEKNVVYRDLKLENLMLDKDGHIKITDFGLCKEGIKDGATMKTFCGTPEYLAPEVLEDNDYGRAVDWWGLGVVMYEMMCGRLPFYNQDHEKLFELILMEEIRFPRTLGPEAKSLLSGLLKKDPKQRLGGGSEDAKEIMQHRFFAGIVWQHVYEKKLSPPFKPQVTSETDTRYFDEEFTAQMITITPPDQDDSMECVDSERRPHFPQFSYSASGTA

Compound Cn1cccc1C(=O)NCc1ccc(-n2c(-c3cccnc3N)nc3cc(-c4cccnc4)cnc32)cc1 [Example 252, N-(4-(2-(2-aminopyridin-3-yl)-6-(pyridin-3-yl)-3H-imidazo[4,5-b]pyridin-3-yl)benzyl)-1-methyl-1H-pyrrole-2-carboxamide] has an IC50 of 0.17 µM.

With CC(=O)Nc1ccc(-c2ccc3nc(-c4cccnc4N)n(-c4ccc(NC(=O)c5ccccc5)cc4)c3n2)cc1 [Example 253, N-(4-(5-(4-acetamidophenyl)-2-(2-aminopyridin-3-yl)-3H-imidazo[4,5-b]pyridin-3-yl)phenyl)benzamide] the IC50 was 0.027 µM.

In the case of Nc1ncccc1-c1nc2ccc(-c3ccccc3)nc2n1-c1ccc(NC(=O)c2ccccc2)cc1 [Example 254, N-(4-(2-(2-aminopyridin-3-yl)-5-phenyl-3H-imidazo[4,5-b]pyridin-3-yl)phenyl)benzamide], the IC50 is reported as 0.082 µM.

Work on Nc1ncccc1-c1nc2ccc(-c3cccnc3)nc2n1-c1ccc(NC(=O)c2ccccc2)cc1 [Example 255, N-(4-(2-(2-aminopyridin-3-yl)-5-(pyridin-3-yl)-3H-imidazo[4,5-b]pyridin-3-yl)phenyl)benzamide] yielded an IC50 of 0.012 µM.

For Nc1ncccc1-c1nc2ccc(-c3ccncc3)nc2n1-c1ccc(NC(=O)c2ccccc2)cc1 [Example 256, N-(4-(2-(2-aminopyridin-3-yl)-5-(pyridin-4-yl)-3H-imidazo[4,5-b]pyridin-3-yl)phenyl)benzamide], the IC50 was 0.019 µM.

With Nc1ncccc1-c1nc2ccc(-c3cccnc3)nc2n1-c1ccc(CC(=O)Nc2ccccc2)cc1 [Example 257, 2-(4-(2-(2-aminopyridin-3-yl)-5-(pyridin-3-yl)-3H-imidazo[4,5-b]pyridin-3-yl)phenyl)-N-phenylacetamide] the IC50 was 0.046 µM.

CC(=O)Nc1cccc(NC(=O)Cc2ccc(-n3c(-c4cccnc4N)nc4ccc(-c5cccnc5)nc43)cc2)c1 [Example 258, N-(3-acetamidophenyl)-2-(4-(2-(2-aminopyridin-3-yl)-5-(pyridin-3-yl)-3H-imidazo[4,5-b]pyridin-3-yl)phenyl)acetamide] was tested, and the IC50 was 0.017 µM.

Work on CC(=O)Nc1ccc(-c2ccc3nc(-c4cccnc4N)n(-c4ccc(CNC(=O)OC(C)(C)C)cc4)c3n2)cc1 [Example 259, tert-butyl 4-(5-(4-acetamidophenyl)-2-(2-aminopyridin-3-yl)-3H-imidazo[4,5-b]pyridin-3-yl)benzylcarbamate] yielded an IC50 of 0.53 µM.

For Cc1ccc2cc(NC(=O)Cc3ccc(-n4c(-c5cccnc5N)nc5ccc(-c6cccnc6)nc54)cc3)ccc2n1 [Example 260, 2-(4-(2-(2-aminopyridin-3-yl)-5-(pyridin-3-yl)-3H-imidazo[4,5-b]pyridin-3-yl)phenyl)-N-(2-methylquinolin-6-yl)acetamide], the IC50 was 0.014 µM.

In the case of Cc1ccc2nc(-c3cccnc3N)n(-c3ccc(CNC(=O)c4cccn4C)cc3)c2n1 [Example 262, N-(4-(2-(2-aminopyridin-3-yl)-5-methyl-3H-imidazo[4,5-b]pyridin-3-yl)benzyl)-1-methyl-1H-pyrrole-2-carboxamide], the IC50 is reported as 0.15 µM.

Cc1ccc2cc(C(=O)NCc3ccc(-n4c(-c5cccnc5N)nc5ccc(C)nc54)cc3)ccc2n1 [Example 263, N-(4-(2-(2-aminopyridin-3-yl)-5-methyl-3H-imidazo[4,5-b]pyridin-3-yl)benzyl)-2-methylquinoline-6-carboxamide] was tested, and the IC50 was 0.11 µM.

Work on Cc1cnc2c(c1)nc(-c1cccnc1N)n2-c1ccc(CNC(=O)c2cccc(F)c2F)cc1 [Example 265, N-(4-(2-(2-aminopyridin-3-yl)-6-methyl-3H-imidazo[4,5-b]pyridin-3-yl)benzyl)-2,3-difluorobenzamide] yielded an IC50 of 0.093 µM.

Compound Cc1cnc2c(c1)nc(-c1cccnc1N)n2-c1ccc(CNC(=O)c2ccc(Cl)c(Cl)c2)cc1 [Example 266, N-(4-(2-(2-aminopyridin-3-yl)-6-methyl-3H-imidazo[4,5-b]pyridin-3-yl)benzyl)-3,4-dichlorobenzamide] has an IC50 of 0.23 µM.

Compound Cc1cnc2c(c1)nc(-c1cccnc1N)n2-c1ccc(CNC(=O)c2cccc(C(F)(F)F)c2)cc1 [Example 267, N-(4-(2-(2-aminopyridin-3-yl)-6-methyl-3H-imidazo[4,5-b]pyridin-3-yl)benzyl)-3-(trifluoromethyl)benzamide] has an IC50 of 0.59 µM.

Work on Cc1cnc2c(c1)nc(-c1cccnc1N)n2-c1ccc(CNC(=O)c2cccnc2)cc1 [Example 268, N-(4-(2-(2-aminopyridin-3-yl)-6-methyl-3H-imidazo[4,5-b]pyridin-3-yl)benzyl)nicotinamide] yielded an IC50 of 0.59 µM.

With Cc1cnc2c(c1)nc(-c1cccnc1N)n2-c1ccc(CNC(=O)c2ccc(C)c(C)c2)cc1 [Example 269, N-(4-(2-(2-aminopyridin-3-yl)-6-methyl-3H-imidazo[4,5-b]pyridin-3-yl)benzyl)-3,4-dimethylbenzamide] the IC50 was 0.16 µM.

COC(=O)c1cccc(C(=O)NCc2ccc(-n3c(-c4cccnc4N)nc4cc(C)cnc43)cc2)c1 [Example 270, methyl 3-((4-(2-(2-aminopyridin-3-yl)-6-methyl-3H-imidazo[4,5-b]pyridin-3-yl)benzyl)carbamoyl)benzoate] showed an IC50 of 0.24 µM.

Cc1cnc2c(c1)nc(-c1cccnc1N)n2-c1ccc(CNC(=O)c2cncnc2)cc1 [Example 271, N-(4-(2-(2-aminopyridin-3-yl)-6-methyl-3H-imidazo[4,5-b]pyridin-3-yl)benzyl)pyrimidine-5-carboxamide] gave an IC50 of 0.64 µM.

With Cc1cnc2c(c1)nc(-c1cccnc1N)n2-c1ccc(CNC(=O)c2ccc(Cl)c(C)c2)cc1 [Example 272, N-(4-(2-(2-aminopyridin-3-yl)-6-methyl-3H-imidazo[4,5-b]pyridin-3-yl)benzyl)-4-chloro-3-methylbenzamide] the IC50 was 0.21 µM.

Cc1cnc2c(c1)nc(-c1cccnc1N)n2-c1ccc(CNC(=O)C2CCCC2)cc1 [Example 273, N-(4-(2-(2-aminopyridin-3-yl)-6-methyl-3H-imidazo[4,5-b]pyridin-3-yl)benzyl)cyclopentanecarboxamide] was tested, and the IC50 was 0.22 µM.

Cc1cnc2c(c1)nc(-c1cccnc1N)n2-c1ccc(CNC(=O)c2cccnc2F)cc1 [Example 274, N-(4-(2-(2-aminopyridin-3-yl)-6-methyl-3H-imidazo[4,5-b]pyridin-3-yl)benzyl)-2-fluoronicotinamide] showed an IC50 of 51 µM.

For Cc1cnc2c(c1)nc(-c1cccnc1N)n2-c1ccc(CNC(=O)c2ccc(Cl)cc2Cl)cc1 [Example 275, N-(4-(2-(2-aminopyridin-3-yl)-6-methyl-3H-imidazo[4,5-b]pyridin-3-yl)benzyl)-2,4-dichlorobenzamide], the IC50 was 0.11 µM.

Work on Cc1cnc2c(c1)nc(-c1cccnc1N)n2-c1ccc(CNC(=O)c2cncs2)cc1 [Example 276, N-(4-(2-(2-aminopyridin-3-yl)-6-methyl-3H-imidazo[4,5-b]pyridin-3-yl)benzyl)thiazole-5-carboxamide] yielded an IC50 of 0.78 µM.

Cc1cc(C)cc(C(=O)NCc2ccc(-n3c(-c4cccnc4N)nc4cc(C)cnc43)cc2)c1 [Example 277, N-(4-(2-(2-aminopyridin-3-yl)-6-methyl-3H-imidazo[4,5-b]pyridin-3-yl)benzyl)-3,5-dimethylbenzamide] showed an IC50 of 0.39 µM.

Cc1cnc2c(c1)nc(-c1cccnc1N)n2-c1ccc(CNC(=O)c2ccc(C)c(F)c2)cc1 [Example 278, N-(4-(2-(2-aminopyridin-3-yl)-6-methyl-3H-imidazo[4,5-b]pyridin-3-yl)benzyl)-3-fluoro-4-methylbenzamide] gave an IC50 of 0.12 µM.

Work on Cc1cnc2c(c1)nc(-c1cccnc1N)n2-c1ccc(CNC(=O)c2ccc3ncccc3c2)cc1 [Example 279, N-(4-(2-(2-aminopyridin-3-yl)-6-methyl-3H-imidazo[4,5-b]pyridin-3-yl)benzyl)quinoline-6-carboxamide] yielded an IC50 of 0.11 µM.

Compound Cc1cnc2c(c1)nc(-c1cccnc1N)n2-c1ccc(CNC(=O)c2ccc(C)s2)cc1 [Example 280, N-(4-(2-(2-aminopyridin-3-yl)-6-methyl-3H-imidazo[4,5-b]pyridin-3-yl)benzyl)-5-methylthiophene-2-carboxamide] has an IC50 of 0.11 µM.

Cc1cnc2c(c1)nc(-c1cccnc1N)n2-c1ccc(CNC(=O)c2ccccc2C(F)(F)F)cc1 [Example 281, N-(4-(2-(2-aminopyridin-3-yl)-6-methyl-3H-imidazo[4,5-b]pyridin-3-yl)benzyl)-2-(trifluoromethyl)benzamide] gave an IC50 of 0.071 µM.

With Cc1cnc2c(c1)nc(-c1cccnc1N)n2-c1ccc(CNC(=O)c2cccc(Cl)c2)cc1 [Example 282, N-(4-(2-(2-aminopyridin-3-yl)-6-methyl-3H-imidazo[4,5-b]pyridin-3-yl)benzyl)-3-chlorobenzamide] the IC50 was 0.14 µM.

Cc1cnc2c(c1)nc(-c1cccnc1N)n2-c1ccc(CNC(=O)c2cc(F)ccc2F)cc1 [Example 283, N-(4-(2-(2-aminopyridin-3-yl)-6-methyl-3H-imidazo[4,5-b]pyridin-3-yl)benzyl)-2,5-difluorobenzamide] gave an IC50 of 0.22 µM.

Compound Cc1cnc2c(c1)nc(-c1cccnc1N)n2-c1ccc(CNC(=O)c2ccccn2)cc1 [Example 284, N-(4-(2-(2-aminopyridin-3-yl)-6-methyl-3H-imidazo[4,5-b]pyridin-3-yl)benzyl)picolinamide] has an IC50 of 0.77 µM.

In the case of Cc1cnc2c(c1)nc(-c1cccnc1N)n2-c1ccc(CNC(=O)c2cnccn2)cc1 [Example 285, N-(4-(2-(2-aminopyridin-3-yl)-6-methyl-3H-imidazo[4,5-b]pyridin-3-yl)benzyl)pyrazine-2-carboxamide], the IC50 is reported as 0.85 µM.

Cc1cnc2c(c1)nc(-c1cccnc1N)n2-c1ccc(CNC(=O)Cc2nnn[nH]2)cc1 [Example 286, N-(4-(2-(2-aminopyridin-3-yl)-6-methyl-3H-imidazo[4,5-b]pyridin-3-yl)benzyl)-2-(1H-tetrazol-5-yl)acetamide] gave an IC50 of 0.74 µM.

CC(C)(C)OC(=O)NCc1ccc(-n2c(-c3cccnc3N)nc3ccc(-c4ccc(CO)cc4)nc32)cc1 [Example 288, tert-butyl 4-(2-(2-aminopyridin-3-yl)-5-(4-(hydroxymethyl)phenyl)-3H-imidazo[4,5-b]pyridin-3-yl)benzylcarbamate] gave an IC50 of 0.45 µM.
